ChEMBL document CHEMBL1201862, “PubChem BioAssay data set” (2004)
The source made the active and inactive calls.

Experiments:
[1] = test system: HeLa; test: ATP-based viability loss in HeLa cells – cell-based, CellTiter-Glo luminescence, cherry-pick samples, cytotoxicity control for MITF activator project, dose response (AID 540259); assay type: functional; conditions: Homo sapiens
[2] = biological target: T1, Corticotropin-releasing factor receptor 2/Corticotropin-releasing factor-binding protein (Homo sapiens, UniProt P24387+Q13324); test: activators of CRF receptor 2 with binding protein – uHTS hits, confirmation (AID 602473); assay type: functional; conditions: read-out: EC50_Mean
T1 sequence (Q13324 whole entry): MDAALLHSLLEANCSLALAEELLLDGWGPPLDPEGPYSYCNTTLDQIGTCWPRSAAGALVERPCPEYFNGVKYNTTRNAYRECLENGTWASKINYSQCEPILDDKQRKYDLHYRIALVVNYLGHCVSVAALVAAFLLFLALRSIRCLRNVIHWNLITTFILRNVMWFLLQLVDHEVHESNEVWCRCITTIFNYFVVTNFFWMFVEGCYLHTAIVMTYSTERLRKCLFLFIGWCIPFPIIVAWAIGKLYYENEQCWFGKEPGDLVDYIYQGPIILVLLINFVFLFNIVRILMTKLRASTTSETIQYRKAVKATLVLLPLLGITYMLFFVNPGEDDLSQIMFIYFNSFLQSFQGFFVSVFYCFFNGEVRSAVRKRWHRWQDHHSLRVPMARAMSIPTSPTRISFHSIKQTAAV
T1 sequence (P24387 whole entry): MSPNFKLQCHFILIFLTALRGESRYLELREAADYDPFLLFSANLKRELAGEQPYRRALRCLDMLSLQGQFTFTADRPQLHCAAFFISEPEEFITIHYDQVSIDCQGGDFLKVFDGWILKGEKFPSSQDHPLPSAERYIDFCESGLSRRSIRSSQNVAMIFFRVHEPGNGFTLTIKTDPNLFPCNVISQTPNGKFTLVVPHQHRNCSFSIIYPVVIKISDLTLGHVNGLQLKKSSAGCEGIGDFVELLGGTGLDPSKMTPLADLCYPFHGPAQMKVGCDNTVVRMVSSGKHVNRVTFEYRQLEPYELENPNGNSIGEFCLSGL

[3] = biological target: T1, Corticotropin-releasing factor receptor 2/Corticotropin-releasing factor-binding protein; test: Dose Response confirmation of uHTS hits for small molecule antagonists of the CRF-binding protein and CRF-R2 receptor complex.; assay type: functional; conditions: read-out: IC50_Mean
[4] = biological target: FAD-linked sulfhydryl oxidase ALR (Homo sapiens, UniProt P55789); test: ALR-catalysed DTT oxidation blockers – biochemical, H2O2 detection, luminescence, cherry-pick, dose response (AID 493248)
FAD-linked sulfhydryl oxidase ALR, sequence (P55789 whole entry): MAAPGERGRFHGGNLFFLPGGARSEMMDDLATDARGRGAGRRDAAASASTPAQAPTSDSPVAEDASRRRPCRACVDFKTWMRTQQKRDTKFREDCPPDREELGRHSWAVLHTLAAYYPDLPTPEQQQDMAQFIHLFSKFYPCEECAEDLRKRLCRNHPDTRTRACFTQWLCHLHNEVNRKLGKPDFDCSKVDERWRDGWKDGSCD

[5] = biological target: Dual specificity tyrosine-phosphorylation-regulated kinase 1A (Rattus norvegicus, UniProt Q63470); assay type: biochemical, Homo sapiens
[6] = biological target: Histone-lysine N-methyltransferase NSD2 (Homo sapiens, UniProt O96028); assay type: biochemical
Histone-lysine N-methyltransferase NSD2, sequence (O96028 whole entry): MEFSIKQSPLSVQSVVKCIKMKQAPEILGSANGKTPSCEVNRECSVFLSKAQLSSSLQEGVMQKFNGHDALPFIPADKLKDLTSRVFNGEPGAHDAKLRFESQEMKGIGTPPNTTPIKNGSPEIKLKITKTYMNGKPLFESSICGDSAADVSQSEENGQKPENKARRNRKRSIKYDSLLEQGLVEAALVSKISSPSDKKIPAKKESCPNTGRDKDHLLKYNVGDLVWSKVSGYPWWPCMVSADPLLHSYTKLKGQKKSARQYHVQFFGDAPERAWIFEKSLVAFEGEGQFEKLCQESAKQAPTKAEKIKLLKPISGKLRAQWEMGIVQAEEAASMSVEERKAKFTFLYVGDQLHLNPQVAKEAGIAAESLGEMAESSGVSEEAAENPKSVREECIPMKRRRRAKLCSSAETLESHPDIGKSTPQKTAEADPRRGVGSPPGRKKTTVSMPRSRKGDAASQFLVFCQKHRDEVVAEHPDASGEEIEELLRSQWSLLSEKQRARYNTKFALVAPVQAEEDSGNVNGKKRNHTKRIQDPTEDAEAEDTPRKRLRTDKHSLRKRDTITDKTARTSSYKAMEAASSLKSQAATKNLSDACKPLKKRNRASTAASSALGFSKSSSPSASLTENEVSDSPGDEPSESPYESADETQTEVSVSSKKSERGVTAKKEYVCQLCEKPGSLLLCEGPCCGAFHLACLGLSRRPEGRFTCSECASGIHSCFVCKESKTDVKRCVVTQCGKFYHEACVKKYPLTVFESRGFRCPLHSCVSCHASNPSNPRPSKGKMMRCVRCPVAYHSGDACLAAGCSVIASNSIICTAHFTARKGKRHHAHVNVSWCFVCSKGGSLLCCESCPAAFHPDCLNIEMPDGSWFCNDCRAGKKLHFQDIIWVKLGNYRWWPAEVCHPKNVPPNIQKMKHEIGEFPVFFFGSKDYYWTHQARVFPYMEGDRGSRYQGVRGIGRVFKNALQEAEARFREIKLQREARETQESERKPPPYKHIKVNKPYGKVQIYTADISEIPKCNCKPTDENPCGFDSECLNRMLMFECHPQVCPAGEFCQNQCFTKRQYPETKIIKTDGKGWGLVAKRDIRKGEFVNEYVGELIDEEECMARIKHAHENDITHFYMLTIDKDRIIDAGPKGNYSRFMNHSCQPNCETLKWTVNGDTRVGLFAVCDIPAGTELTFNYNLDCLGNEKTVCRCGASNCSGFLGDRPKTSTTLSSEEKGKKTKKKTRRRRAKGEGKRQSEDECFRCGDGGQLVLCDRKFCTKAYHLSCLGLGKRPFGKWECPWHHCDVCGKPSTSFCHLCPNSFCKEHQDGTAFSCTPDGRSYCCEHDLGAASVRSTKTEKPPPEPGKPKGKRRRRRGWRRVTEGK

[7] = biological target: Induced myeloid leukemia cell differentiation protein Mcl-1 (Homo sapiens, UniProt Q07820); assay type: functional
Induced myeloid leukemia cell differentiation protein Mcl-1, sequence (Q07820 whole entry): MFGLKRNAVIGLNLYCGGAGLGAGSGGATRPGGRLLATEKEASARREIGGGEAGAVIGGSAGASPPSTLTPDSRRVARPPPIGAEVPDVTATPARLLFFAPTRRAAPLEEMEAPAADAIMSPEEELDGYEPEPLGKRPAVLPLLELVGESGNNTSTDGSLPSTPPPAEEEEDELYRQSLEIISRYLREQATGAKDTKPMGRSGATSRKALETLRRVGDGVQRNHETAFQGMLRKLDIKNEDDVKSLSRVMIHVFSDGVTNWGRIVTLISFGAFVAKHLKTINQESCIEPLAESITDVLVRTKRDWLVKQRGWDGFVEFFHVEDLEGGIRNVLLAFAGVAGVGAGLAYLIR

[8] = test system: HEK293; test: PMA/Ionomycin induced NF-kB luciferase assay in 293- NF-kB-Luc stable cells. [Related pubchem assays: 1299, 1270, 1295, 1375, 1287, 1281, 1293, 1291, 1289, 1280, 465, 1364, 1282, 1372, 1365, 1370, 1367, 1366, 1269, 1373, 1292, 1290, 1302, 1371, 1283, 1271, 1294, 1374, 1368, 1369 ]; assay type: functional, cell-based; conditions: Homo sapiens
[9] = biological target: Luciferin 4-monooxygenase (Photinus pyralis, UniProt P08659); test: In vitro luciferase assay using purified luciferase. [Related pubchem assays: 1299, 1270, 1295, 1375, 1287, 1281, 1293, 1291, 1289, 1280, 465, 1364, 1282, 1372, 1365, 1370, 1367, 1366, 1266, 1373, 1292, 1290, 1302, 1371, 1283, 1271, 1294, 1374, 1368, 1369 ]
Luciferin 4-monooxygenase, sequence (P08659 whole entry): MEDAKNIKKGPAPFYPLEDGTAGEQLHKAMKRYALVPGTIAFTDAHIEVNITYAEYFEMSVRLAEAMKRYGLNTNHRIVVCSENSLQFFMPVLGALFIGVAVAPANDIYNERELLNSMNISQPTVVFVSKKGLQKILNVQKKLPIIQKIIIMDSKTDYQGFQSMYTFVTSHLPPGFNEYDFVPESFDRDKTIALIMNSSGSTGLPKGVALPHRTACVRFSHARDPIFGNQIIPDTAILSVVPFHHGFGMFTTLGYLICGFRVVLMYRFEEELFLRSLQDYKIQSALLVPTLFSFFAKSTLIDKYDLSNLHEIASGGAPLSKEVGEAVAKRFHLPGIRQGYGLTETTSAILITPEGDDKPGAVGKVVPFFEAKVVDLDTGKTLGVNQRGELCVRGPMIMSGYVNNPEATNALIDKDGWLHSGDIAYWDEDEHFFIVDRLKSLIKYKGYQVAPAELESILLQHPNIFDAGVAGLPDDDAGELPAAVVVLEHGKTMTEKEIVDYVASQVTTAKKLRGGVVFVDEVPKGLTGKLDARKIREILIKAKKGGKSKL

[10] = test system: HEK293; test: EBV LMP1 TES2 canonical NF-kB signalling blockers – cell-based, HEK293, luciferase, cherry-pick, dose response (AID 588343); assay type: functional; conditions: Homo sapiens
[11] = test system: HEK293; test: Cytotoxicity assay in HEK293 cells. [Related pubchem assays (depositor defined):AID1266, AID1269, AID1270, AID1271, AID1280, AID1281, AID1282, AID1283, AID1287, AID1289, AID1290, AID1291, AID1292, AID1293, AID1294, AID1295, AID1299, AID1302, AID1364, AID1365, AID1366, AID1367, AID1369, AID1370, AID1371, AID1372, AID1373, AID1374, AID1375, AID1384 …; assay type: functional, cell-based; conditions: Homo sapiens
[12] = test system: HEK293; test: HEK293T cell viability loss, resazurin readout – resazurin fluorescence, cytotoxicity control for NF-kB activator project, SAR follow-up (AID 493251); assay type: functional, cell-based
[13] = HEK-293T cell viability reduction – luminescence, B-cell screen hits, cytotoxicity control for BCR NF-kB inhibitor project, dose response (AID 489021); assay type: functional, cell-based;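 note: HEK-293T cells carrying an NF-kB luciferase reporter; cells exposed to compound for about 14 hours before viability readout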
[14] = test system: HEK293; test: SAR Analysis of small molecule inhibitors of T-cell specific antigen receptor-induced NF-kB activation in a HEK-293T cell line using a luminescence assay - Set 2. [Related pubchem assays (depositor defined):AID435003, AID435012, AID489026]; assay type: functional, cell-based; conditions: Homo sapiens
[15] = test system: Jurkat; test: SAR Analysis of small molecule inhibitors of T-cell specific antigen receptor-induced NF-kB activation in a Jurkat cell line using a luminescence assay - Set 2. [Related pubchem assays (depositor defined):AID435003, AID435012, AID465]; assay type: functional, cell-based; conditions: Homo sapiens
[16] = fluconazole-exposed Candida albicans growth modulators – fluorescence, retest, confirmation (AID 2467); assay type: functional, cell-based
[17] = biological target: ATP-dependent molecular chaperone HSP82 (Candida albicans (strain WO-1) (Yeast), UniProt C4YTQ8); test: steroid-induced GRE reporter decrease in yeast – S. cerevisiae, luminescence, Hsp90 inhibitor project, dose response (AID 2400); assay type: functional, cell-based;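 note: beta-galactosidase luminescence from glucocorticoid response element reporter as proxy for Hsp90 function; inhibitor potency where signal loss means Hsp90 inhibition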
ATP-dependent molecular chaperone HSP82, sequence (C4YTQ8 whole entry): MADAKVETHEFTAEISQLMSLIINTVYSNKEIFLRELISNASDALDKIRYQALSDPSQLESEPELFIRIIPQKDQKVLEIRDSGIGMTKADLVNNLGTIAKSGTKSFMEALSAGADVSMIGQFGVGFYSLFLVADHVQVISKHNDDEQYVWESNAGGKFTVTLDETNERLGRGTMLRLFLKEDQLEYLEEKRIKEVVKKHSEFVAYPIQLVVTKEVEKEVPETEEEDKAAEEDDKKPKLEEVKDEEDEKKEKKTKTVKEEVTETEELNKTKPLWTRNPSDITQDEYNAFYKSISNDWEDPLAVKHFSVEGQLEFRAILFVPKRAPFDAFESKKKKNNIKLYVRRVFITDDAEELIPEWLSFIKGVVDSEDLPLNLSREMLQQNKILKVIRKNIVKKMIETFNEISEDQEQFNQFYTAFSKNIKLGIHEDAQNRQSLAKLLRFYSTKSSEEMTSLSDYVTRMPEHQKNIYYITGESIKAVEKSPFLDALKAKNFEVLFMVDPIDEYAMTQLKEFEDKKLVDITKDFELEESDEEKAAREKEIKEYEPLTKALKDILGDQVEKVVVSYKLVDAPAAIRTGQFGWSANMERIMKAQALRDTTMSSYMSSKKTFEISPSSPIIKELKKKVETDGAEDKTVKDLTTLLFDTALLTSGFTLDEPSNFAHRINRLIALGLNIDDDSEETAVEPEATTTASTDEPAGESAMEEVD

[18] = biological target: Serine/threonine-protein phosphatase (Candida dubliniensis (strain CD36 / CBS 7987 / NCPF 3949 / NRRLY-17841) (Yeast), UniProt B9W6M3); test: blockers of CaCl2-induced CDRE-lacZ signaling – S. cerevisiae, luminescence, secondary, dose response (AID 2388); assay type: functional, cell-based;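 note: yeast reporter cells carrying a calcineurin-responsive lacZ construct stimulated with calcium chloride; luminescent beta-galactosidase reporter signal in whole cells rather than isolated phosphatase activity; potency for inhibition where a drop in reporter signal means calcineurin blockade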
Serine/threonine-protein phosphatase, sequence (B9W6M3 whole entry): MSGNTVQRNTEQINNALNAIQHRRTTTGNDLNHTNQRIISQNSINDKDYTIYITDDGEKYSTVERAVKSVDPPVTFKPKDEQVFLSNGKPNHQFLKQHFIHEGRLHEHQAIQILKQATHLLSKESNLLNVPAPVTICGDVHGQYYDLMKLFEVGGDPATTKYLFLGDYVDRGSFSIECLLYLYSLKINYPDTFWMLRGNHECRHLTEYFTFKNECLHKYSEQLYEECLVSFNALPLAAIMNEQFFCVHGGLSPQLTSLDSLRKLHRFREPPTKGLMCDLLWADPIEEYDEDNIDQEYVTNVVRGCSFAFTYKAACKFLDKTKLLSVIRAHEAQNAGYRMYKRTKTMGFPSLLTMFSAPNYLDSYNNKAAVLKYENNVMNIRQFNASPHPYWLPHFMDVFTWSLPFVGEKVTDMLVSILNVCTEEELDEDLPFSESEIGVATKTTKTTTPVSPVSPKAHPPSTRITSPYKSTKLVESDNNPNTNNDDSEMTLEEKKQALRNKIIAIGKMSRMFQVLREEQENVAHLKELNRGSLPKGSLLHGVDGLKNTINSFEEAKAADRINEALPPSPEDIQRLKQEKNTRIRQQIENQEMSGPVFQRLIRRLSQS

[19] = NIH-3T3 fibroblast cytotoxicity, dose response, cytotoxicity control, cell-based, fluorescence, Alamar Blue, secondary assay (AID 2327); assay type: functional;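 note: NIH-3T3 mouse fibroblasts cultured with fluconazole at 8 µg/mL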
[20] = luciferase reporter signal suppression in cells – H4 neuroglioma cells, luminescence, dose response (AID 1990); assay type: functional, cell-based
[21] = alpha-synuclein stem-loop luciferase translation blockers – H4 neuroglioma cells, luminescence, confirmation (AID 1988); assay type: functional, cell-based
[22] = luciferase reporter signal reduction – luminescence, H4-C neuroglioblastoma cells, dose response (AID 2458); assay type: functional, cell-based;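 note: H4 neuroglioblastoma cells stably carrying a luciferase reporter gene fusion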
[23] = biological target: T2, Intestinal-type alkaline phosphatase (Homo sapiens, UniProt P09923); test: activation of human intestinal alkaline phosphatase – biochemical, luminescent, uHTS hits, set 2, dose response (AID 488817); assay type: functional;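 note: potency of activators that raise enzyme activity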
T2 sequence (P09923 whole entry): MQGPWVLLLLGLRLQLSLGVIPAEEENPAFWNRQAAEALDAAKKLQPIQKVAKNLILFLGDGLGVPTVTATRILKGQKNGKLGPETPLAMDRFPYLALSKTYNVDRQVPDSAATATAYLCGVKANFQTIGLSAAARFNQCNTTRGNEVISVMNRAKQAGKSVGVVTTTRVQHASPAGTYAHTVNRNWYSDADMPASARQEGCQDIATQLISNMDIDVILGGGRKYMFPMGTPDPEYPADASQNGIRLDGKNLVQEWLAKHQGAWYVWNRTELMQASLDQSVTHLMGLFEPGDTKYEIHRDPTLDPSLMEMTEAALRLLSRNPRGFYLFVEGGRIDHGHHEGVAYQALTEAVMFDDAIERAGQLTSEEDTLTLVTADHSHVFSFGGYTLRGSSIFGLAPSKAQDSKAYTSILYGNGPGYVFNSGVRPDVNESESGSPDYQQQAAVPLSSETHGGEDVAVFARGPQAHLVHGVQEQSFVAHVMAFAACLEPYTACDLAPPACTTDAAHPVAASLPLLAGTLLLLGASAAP

[24] = Counterscreen for AddAB inhibitors: absorbance-based bacterial cell-based high throughput dose response assay for inhibitors of bacterial viability. [Related pubchem assays (depositor defined):AID435030, AID449728, AID449731, AID488942, AID488955, AID488956]; assay type: functional
[25] = biological target: Intestinal-type alkaline phosphatase (Mus musculus, UniProt P24822); test: PubChem AID 488874; assay type: functional
Intestinal-type alkaline phosphatase (Mus musculus, UniProt P24822), sequence (P24822 whole entry): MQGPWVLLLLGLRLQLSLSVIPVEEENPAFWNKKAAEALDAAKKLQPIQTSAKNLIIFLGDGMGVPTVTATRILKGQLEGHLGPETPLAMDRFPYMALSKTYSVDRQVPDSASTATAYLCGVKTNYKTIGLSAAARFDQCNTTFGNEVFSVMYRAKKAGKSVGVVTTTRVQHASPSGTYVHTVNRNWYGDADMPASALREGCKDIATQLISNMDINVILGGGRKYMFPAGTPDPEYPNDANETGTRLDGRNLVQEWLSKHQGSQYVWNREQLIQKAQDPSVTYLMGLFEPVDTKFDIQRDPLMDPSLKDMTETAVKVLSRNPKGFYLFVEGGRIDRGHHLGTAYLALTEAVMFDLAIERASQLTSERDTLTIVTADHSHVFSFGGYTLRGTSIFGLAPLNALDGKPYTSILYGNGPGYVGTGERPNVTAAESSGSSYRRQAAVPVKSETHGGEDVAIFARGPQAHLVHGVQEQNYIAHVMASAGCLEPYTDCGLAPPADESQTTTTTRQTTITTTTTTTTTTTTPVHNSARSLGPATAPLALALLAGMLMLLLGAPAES

[26] = test system: INS1; test: INS-1E survival protection against cytokine death – cell-based, luminescence, retest, dose response (AID 449756); assay type: functional; conditions: Rattus norvegicus;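 note: cell death triggered by IL-1 beta plus TNF-alpha plus IFN-gamma mixture; protective hits raise ATP signal compared with cytokine alone wells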
[27] = biological target: T3, Alkaline phosphatase, tissue-nonspecific isozyme (Homo sapiens, UniProt P05186); test: activation of tissue-nonspecific alkaline phosphatase – biochemical, TNAP isozyme, human IAP uHTS hits, selectivity assay for human IAP activator project, dose response (AID 488886); assay type: functional;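 note: potency of compounds raising TNAP activity as a selectivity check on IAP activators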
T3 sequence (P05186 whole entry): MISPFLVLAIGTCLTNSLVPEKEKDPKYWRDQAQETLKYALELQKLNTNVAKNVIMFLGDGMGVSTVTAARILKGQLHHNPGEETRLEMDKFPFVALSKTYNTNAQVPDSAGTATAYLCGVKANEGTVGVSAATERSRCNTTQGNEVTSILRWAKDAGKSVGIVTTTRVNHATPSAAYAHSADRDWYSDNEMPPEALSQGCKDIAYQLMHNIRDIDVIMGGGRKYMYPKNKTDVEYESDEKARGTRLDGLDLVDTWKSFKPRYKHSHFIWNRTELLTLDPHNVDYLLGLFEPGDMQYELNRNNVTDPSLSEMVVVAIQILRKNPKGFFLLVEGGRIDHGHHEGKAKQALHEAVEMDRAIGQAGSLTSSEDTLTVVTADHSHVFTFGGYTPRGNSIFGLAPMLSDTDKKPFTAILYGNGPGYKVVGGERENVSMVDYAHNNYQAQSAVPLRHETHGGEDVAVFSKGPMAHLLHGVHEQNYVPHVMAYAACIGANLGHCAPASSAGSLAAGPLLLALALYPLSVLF

[28] = alpha-synuclein stem-loop translation blockers – luminescence, H4 neuroglioblastoma cells, dose confirmation, confirmation (AID 2454); assay type: functional, cell-based;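 note: H4 neuroglioblastoma cells carrying an alpha-synuclein 5'UTR luciferase reporter; potency for inhibition of the luciferase signal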
[29] = cells; assay type: functional, cell-based
[30] = biological target: Exodeoxyribonuclease V (Escherichia coli (strain K12), UniProt P04993+P07648+P08394); test: RecBCD inhibition via phage-restricted bacterial growth – absorbance, V66 E. coli, mutant T4 phage, counter-screen for AddAB inhibitor project, dose response (AID 492957); assay type: functional, cell-based, Escherichia coli str. K-12 substr. MG1655
[31] = biological target: T2, Intestinal-type alkaline phosphatase; test: human intestinal alkaline phosphatase activators, dose response, biochemical, luminescence, uHTS hits (AID 463120); assay type: functional

In the case of `COc1ccc2c(c1OC)C(=O)N1c3ccccc3COC21` (stereo unspecified), the AC50 [1] is reported as > 350 µM (inactive), the EC50 [2] is reported as > 53 µM (inactive) and the IC50 [3] is reported as > 47.1 µM (inactive).
In the case of `COc1ccc(NC(=O)c2ccc3[nH]c(C)c(C)c3c2)cc1`, the AC50 [1] is reported as 47.9 µM (active).
With `O=C1NC(=O)/C(=C\c2ccc(O)cc2O)S1` the AC50 [4] was 1.78 µM (active), the AC50 [5] was 0.56 µM (active) and the AC50 [6] was 2.07 µM (active). For the same compound, the IC50 [7] was 2.2 µM (active).
With `CCOc1ccc(-c2nc(CSCC(=O)NCc3ccco3)c(C)o2)cc1` the EC50 [8] was 15.4 µM (not active), the EC50 [9] was > 8 µM (not active) and the AC50 [10] was 32 µM (active). The EC50 [11] was 20.3 µM (inactive), the IC50 ([12]; Homo sapiens, HEK293) was 54.4 µM (inactive) and the IC50 ([12]; hek293) was 53.1 µM (inactive). The IC50 [13] was > 80 µM (inactive), the IC50 [14] was 25.2 µM (inactive) and the IC50 [15] was > 79 µM (inactive).
For `CCN(CC)C(=O)CCc1nc(-c2ccc(C(C)(C)C)cc2)no1`, the IC50 ([12]; Homo sapiens, HEK293) was 54.7 µM (inactive), the IC50 ([12]; hek293) was 51.5 µM (inactive) and the IC50 [14] was 19.7 µM (active). For the same compound, the IC50 [15] was 47.8 µM (inactive).
For `CCCCCCc1c(C)nc(-n2[nH]c(C)c(CCO)c2=O)[nH]c1=O`, the EC50 [16] was 0.635 µM (active), the EC50 [17] was > 160 µM (inactive) and the EC50 [18] was > 180 µM (inactive). For the same compound, the EC50 [19] was > 160 µM (inactive).
In the case of `O=c1c2ccccc2nc(N/N=C/c2c(O)ccc3ccccc23)n1O`, the EC50 [20] is reported as < 0.1 µM (active), the EC50 [21] is reported as < 0.1 µM (active) and the EC50 [22] is reported as 0.601 µM (active). For the same compound, the EC50 [23] was 31 µM (active), the EC50 [16] was 0.212 µM (active) and the IC50 [24] was > 119 µM (inactive). The IC50 [25] was 75.3 µM (active), the AC50 [26] was 1.23 µM (active) and the EC50 [27] was > 100 µM (inactive). For the same compound, the EC50 [17] was 18.1 µM (active), the EC50 [28] was > 12 µM (inconclusive) and the EC50 [29] was 1.26 µM (active). For the same compound, the IC50 [30] was > 119 µM (inactive), the EC50 [18] was > 180 µM (inactive) and the EC50 [31] was 13.6 µM (active). The EC50 [19] was > 150 µM (inactive).
